This experiment has as its target T1, hFAAH (Homo sapiens, UniProt O00519).
T1 construct: expressed in transfected cells; host or cells: HEK293-TRex (Invitrogen) stably transfected with hFAAH in the pcDNA5-Tet-off vector, or T84 human colon epithelial cells (endogenous hFAAH); used as a microsomal preparation
T1 sequence (O00519 1-579): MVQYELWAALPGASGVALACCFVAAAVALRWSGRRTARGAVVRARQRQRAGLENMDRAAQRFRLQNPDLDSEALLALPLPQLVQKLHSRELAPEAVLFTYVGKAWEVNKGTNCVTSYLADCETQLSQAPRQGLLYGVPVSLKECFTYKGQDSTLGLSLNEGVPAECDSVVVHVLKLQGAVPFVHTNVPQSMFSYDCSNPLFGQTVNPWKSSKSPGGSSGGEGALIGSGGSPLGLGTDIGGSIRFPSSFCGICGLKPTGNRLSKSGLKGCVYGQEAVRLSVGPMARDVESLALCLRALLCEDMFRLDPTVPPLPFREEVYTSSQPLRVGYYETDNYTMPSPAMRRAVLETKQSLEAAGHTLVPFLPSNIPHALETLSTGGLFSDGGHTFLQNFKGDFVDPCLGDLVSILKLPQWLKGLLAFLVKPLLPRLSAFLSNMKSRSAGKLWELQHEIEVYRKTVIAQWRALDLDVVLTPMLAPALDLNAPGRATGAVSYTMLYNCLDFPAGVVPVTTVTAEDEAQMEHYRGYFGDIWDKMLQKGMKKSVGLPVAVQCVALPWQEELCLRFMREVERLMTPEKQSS
Description: Fluorimetric assay with hFAAH microsomes (enzymatic, fluorescence based). In kind it is biochemical. The settings on record: compound at 1 uM, AA-AMC substrate. The protocol: Human cell line T84 (human colon epithelial cells), which expresses endogenous hFAAH, or HEK293-TRex cells (Invitrogen) stably transfected with hFAAH in the pcDNA5-Tet-off vector are cultured in medium containing DMEM, 10% FBS penicillin/streptomycin, glutamax, 200 μg/ml hygromycin and 0.5 μg/ml blasticidin. Cell collection is done 24 h after induction with doxycycline by first washing the cells with cold PBS and then incubating them with Versene before centrifugation. Cell pellets are then stored at −80° C. until needed. For homogenization, the cell pellets are thawed on ice […] and resuspended in homogenization buffer (50 mM HEPES (pH 7.4), 1 mM EDTA, 1 μM Pepstatin A, 100 μM Leupeptin, 0.1 mg/mL aprotinin). Cell suspensions are then homogenized on ice using the Polytron 1200 C at setting 6 for three 30-second intervals with 30-second rests. The suspension is centrifuged at 1000 g for 10 minutes at 4° C. and the supernatant is collected and further centrifuged at 24000 rpm for 30 minutes at 4° C. using an ultracentrifuge. Pellets are resuspended by adding in cold microsomal buffer (50 mM HEPES (pH 7.4) and 1 mM EDTA) and sheared through a 23-gauge needle five times, keeping the suspension on ice. Protein concentrations are determined using the BCA assay and aliquoted preparations are stored at −80° C. until needed.
Compound potency against hFAAH is determined using an enzymatic assay with a fluorescence readout. Briefly, experiments were carried out in a 96-well plate format (Corning Costar, # 3370) with a total well volume of 160 μL with components added in the following order: assay buffer (50 mM HEPES (pH 7.4), 1 mM EDTA, 1.4 mg/mL BSA), compound solutions (7 different concentrations per compound in duplicate), microsomal enzyme preparation (10 μg per well) and substrate [AA-AMC (arachadonyl 7-amino 4-methyl coumarin amide), 2 μM]. After a brief shaking, a kinetic read of the plate is obtained using a Tecan Safire II in kinetic mode for 275 cycles with excitation and emission wavelengths of 355 and 460 nm, respectively. Raw data is then processed and analyzed using Assay Explorer and GraphPad Prism.
The following compounds have been or can be prepared according to the methods of the invention. An enzymatic (fluorescence based) assay is performed as described above. In Table 1, activity of each compound is expressed as follows: • ++++ % Inhibition >75% • +++ % Inhibition >50% • ++ % Inhibition >25% • + % Inhibition <25%
Turning to `CC1(CN2Cc3ncnc(Nc4cnc5ccccc5c4)c3C2)COC1` [Compound 29, [6-(3-Methyl-oxetan-3-ylmethyl)-6,7-dihydro-5H-pyrrolo[3,4-d]pyrimidin-4-yl]-quinolin-3-yl-amine], the inhibition (in general, the drop in the measured response relative to a control, in per cent) at 1 µM is greater than 25%.

In the case of `O=S(=O)(CCc1ccccc1)N1Cc2ncnc(Nc3cnc4ccccc4c3)c2C1` [Compound 82, [6-(2-Phenyl-ethanesulfonyl)-6,7-dihydro-5H-pyrrolo[3,4-d]pyrimidin-4-yl]-quinolin-3-yl-amine], the inhibition at 1 µM is less than 25%.

`O=S(=O)(c1ccc(F)cc1F)N1Cc2ncnc(Nc3cnc4ccccc4c3)c2C1` [Compound 58, [6-(2,4-Difluoro-benzenesulfonyl)-6,7-dihydro-5H-pyrrolo[3,4-d]pyrimidin-4-yl]-quinolin-3-yl-amine] registered an inhibition at 1 µM greater than 25%.

The compound `FC(F)(F)Oc1ccccc1CN1Cc2ncnc(Nc3cnc4ccccc4c3)c2C1` [Compound 98, Quinolin-3-yl-[6-(2-trifluoromethoxy-benzyl)-6,7-dihydro-5H-pyrrolo[3,4-d]pyrimidin-4-yl]-amine] gave an inhibition at 1 µM greater than 75%.

`Fc1cccc(CN2Cc3ncnc(Nc4cnc5ccccc5c4)c3C2)c1F` [Compound 107, [6-(2,3-Difluoro-benzyl)-6,7-dihydro-5H-pyrrolo[3,4-d]pyrimidin-4-yl]-quinolin-3-yl-amine] registered an inhibition at 1 µM greater than 75%.

Regarding `CCC(C)CN1Cc2ncnc(Nc3cnc4ccccc4c3)c2C1` (stereo not drawn) [Compound 8, [6-(2-Methyl-butyl)-6,7-dihydro-5H-pyrrolo[3,4-d]pyrimidin-4-yl]-quinolin-3-yl-amine], the inhibition at 1 µM was greater than 75%.

As for `CCC(CC)CN1Cc2ncnc(Nc3cnc4ccccc4c3)c2C1` [Compound 14, [6-(2-Ethyl-butyl)-6,7-dihydro-5H-pyrrolo[3,4-d]pyrimidin-4-yl]-quinolin-3-yl-amine], the inhibition at 1 µM is greater than 75%.

The compound `CCCCN1Cc2ncnc(Nc3cnc4ccccc4c3)c2C1` [Compound 6, (6-Butyl-6,7-dihydro-5H-pyrrolo[3,4-d]pyrimidin-4-yl)-quinolin-3-yl-amine] showed an inhibition at 1 µM greater than 25%.

The compound `c1ccc(CCN2Cc3ncnc(Nc4cnc5ccccc5c4)c3C2)cc1` [Compound 22, (6-Phenethyl-6,7-dihydro-5H-pyrrolo[3,4-d]pyrimidin-4-yl)-quinolin-3-yl-amine] returned an inhibition at 1 µM greater than 75%.

Turning to `Cc1noc(C)c1CN1Cc2ncnc(Nc3cnc4ccccc4c3)c2C1` [Compound 67, [6-(3,5-Dimethyl-isoxazol-4-ylmethyl)-6,7-dihydro-5H-pyrrolo[3,4-d]pyrimidin-4-yl]-quinolin-3-yl-amine], the inhibition at 1 µM was greater than 25%.

`Cc1cccc(CN2Cc3ncnc(Nc4cnc5ccccc5c4)c3C2)c1C` [Compound 87, [6-(2,3-Dimethyl-benzyl)-6,7-dihydro-5H-pyrrolo[3,4-d]pyrimidin-4-yl]-quinolin-3-yl-amine] had an inhibition at 1 µM greater than 75%.

The compound `CC(C)(C)OC(=O)N1Cc2ncnc(Nc3cnc4ccccc4c3)c2C1` [Compound 45, 4-(Quinolin-3-ylamino)-5,7-dihydro-pyrrolo[3,4-d]pyrimidine-6-carboxylic acid tert-butyl ester] showed an inhibition at 1 µM greater than 50%.

Consider `COc1ccccc1S(=O)(=O)N1Cc2ncnc(Nc3cnc4ccccc4c3)c2C1` [Compound 73, [6-(2-Methoxy-benzenesulfonyl)-6,7-dihydro-5H-pyrrolo[3,4-d]pyrimidin-4-yl]-quinolin-3-yl-amine], for which the inhibition at 1 µM was greater than 25%.

Compound `CC(C1CCCCC1)N1Cc2ncnc(Nc3cnc4ccccc4c3)c2C1` (stereo not drawn) [Compound 38, [6-(1-Cyclohexyl-ethyl)-6,7-dihydro-5H-pyrrolo[3,4-d]pyrimidin-4-yl]-quinolin-3-yl-amine] yielded an inhibition at 1 µM greater than 75%.

Take `c1ccc2ncc(Nc3ncnc4c3CN(C3CCCCCC3)C4)cc2c1` [Compound 40, (6-Cycloheptyl-6,7-dihydro-5H-pyrrolo[3,4-d]pyrimidin-4-yl)-quinolin-3-yl-amine]: the inhibition at 1 µM was greater than 25%.

These data come from patent US20110257208A1, “COMPOUNDS USEFUL AS FAAH MODULATORS AND USES THEREOF” (priority 2008, published 2011).
